{"source": "patent US20070166710A1", "about": "“Methods for inhibiting adipogenesis and for treating type 2 diabetes” (priority 2003, published 2007)", "key": {"Foxa-2 expression [1]": {"tested_on": "Foxa-2 expression", "test": "Foxa-2 expression in primary adipocytes from lean wildtype C57B6 mice, semiquantitative RT-PCR", "type": "cell-based", "details": "insulin 100 nM, 60 hours", "description": "Total RNA was extracted from cells and EBs using Trizol following manufacturer's instructions (Life Technologies, Inc.). […] The cDNAs provided templates for polymerase chain reactions (PCRs) using specific primers at annealing temperatures ranging between 60 and 65° C. in the presence of dNTPs, [α^-32P]dCTP, and Taq DNA polymerase. […] Primary adipocytes were isolated as described by Rodbell (1964) J. Biol. Chem. 239:375-380. […] (1995) J. Cell. Biochem. 58:435-463. The reaction was stopped by spinning through dinonyl […] oil and the radioactivity quantified by scintillation counting. […] (1995) Am. J. Physiol. 268:[…]-[…]. Fatty acid de novo synthesis was analyzed by saponification of total lipids as described by […] et al. (1978) J. […] Incorporation into lipid glycerol was calculated by subtracting fatty acid radioactive label from total lipid radioactive label. Primary adipocytes were isolated from lean wildtype C57B6 mice and cultured in MEM medium (control) or in the presence of insulin (100 nM; 24 hours and 60 hours, respectively) or rosiglitazone (50 μM), WY14,643 (100 μM), dexametason (1 μM), leptin (100 ng/ml), TNF-α (5 ng/ml), adiponectin (500 ng/ml) and glucagons (100 nM) for 60 hours. Gene expression was measured by semiquantitative RT-PCR. Steady state mRNA levels of Hprt were used as a control and indicate that each lane contains similar amounts of mRNA. Reactions were also assayed in the absence of reverse transcriptase, showing that mRNA was not contaminated with genomic DNA."}, "Foxa-2": {"tested_on": "Foxa-2", "test": "Intracellular localization of Foxa-2 in hepatocytes after insulin injection into the portal vein", "type": "in vivo, mice", "description": "Cryosections of livers ([…]) were fixed for 15 min at RT with 4% paraformaldehyde. For immunofluorescent detection of Foxa-2 or HA-Foxa-2, fixed sections were incubated with either anti-Foxa-2 antibody (1:100) or anti-HA antibody (Convance) (1:1000) overnight at 4° C. After washing, sections were treated with secondary antibody linked to Alexa Fluor 488 (Molecular Probes). For nuclear counterstaining, TOPRO-3 dye (Molecular Probes) was used. Immunofluorescent staining was visualized using laser-scanning micrsocopy.\nThe role of Foxa-2 in the regulation of liver gene expression by nutritional status was examined by determining the intracellular localization of Foxa-2 in fasted and fed mice by Western blotting of Foxa-2 in liver nuclear extracts and by immunohistochemistry. In fed mice, nuclear Foxa-2 levels were low, whereas after an overnight fast Foxa-2 expression in liver nuclei increased ^˜4 to 5-fold (FIG. 15a). […] Strong Foxa-2 immunostaining was detected in hepatocyte nuclei of control (PBS) mice. […] Foxa-2 protein levels were measured in liver nuclei of C57/B6 mice that were perfused with a buffer containing a range of insulin concentrations that included fasting and postprandial insulin levels (0.2 and 4.0 ng/ml, respectively). […] Foxa-2 levels were determined by immunoblotting. […]"}, "[2]": {"tested_on": "endogenous Foxa-2 activity in HepG2 cells", "test": "Endogenous Foxa-2 activity in HepG2 cells transfected with reporter construct alone", "type": "cell-based", "description": "Transfections and Transactivation assay. HepG2 cells were grown to 60-70% confluence in a 24-well dish and transfected with 50 ng of each reporter gene (p6xCdx-TkLuc or pPEPCK-Luc), pCMV-β-Gal as internal reference and the expression vectors for wildtype or mutant Foxa-1 and Foxa-2 and human Akt1/Akt2 using the transfection reagent Fugene6 (Roche). Cells were grown for 48 hours and luciferase activity was measured using the Luciferase Detection System (Promega). Luciferase was normalized for transfection efficiency by β-galactosidase activity. […] To determine whether insulin decreases endogenous Foxa-2 activity in HepG2 cells, cells were transfected with the reporter construct alone and Foxa-2 activity was measured after stimulation with insulin and PI3-kinase or MAPKK1 inhibitors. […] This decrease in activity was ablated when cells were coincubated with Ly294002 but not with PD98059 (FIG. 10b)."}, "Foxa-2 expression [3]": {"tested_on": "Foxa-2 expression", "test": "Foxa-2 gene expression in stromal vascular cells (preadipocytes) of lean and obese mice", "type": "cell-based", "details": "100 nM insulin, 24 and 60 hours", "description": "Gene expression was analyzed in a vasculo-stromal fraction (containing preadipocytes) of wildtype and ob/ob mice that were cultured in the absence (−) or presence of 100 nM insulin for 24 and 60 hours.\nStromal vascular cells from ob/ob mice are known to have increased cell replication in vitro and accumulate little triglycerides when cultured in differentiation medium containing insulin compared to lean control animals (Black et al (1995) J. Cell. Biochem 58:455-463). […] To test if the resistance to differentiation of obese preadipocytes may be mediated by Foxa-2, stromal vascular cells of lean and obese mice were isolated. cultured in the presence or absence of insulin, and gene expression of Foxa-2 and Pref-1 was measured. The mPNA levels were markedly higher in stromal vascular cells of ob/ob mice compared to lean littennates. […] However, Foxa-2 induction in ob/ob preadipocytes was profoundly higher compared to wildtype cells. Furthermore, Foxa-2 expression correlated with induction of Pref-1 gene expression."}}, "data": [{"substance": "insulin: Insulin was from Sigma; hormone used as stimulus", "values": [{"measurement": "Foxa-2 expression", "setting": "Foxa-2 expression [1]", "result": "strong induction"}, {"measurement": "nuclei from which Foxa-2 was excluded", "setting": "Foxa-2; 20 ng/ml insulin into the portal vein of fasted mice, after 5 minutes", "result": "~80", "unit": "%"}, {"measurement": "localization of Foxa-2 in hepatocytes", "setting": "Foxa-2; 15 minutes after insulin administration", "result": "located exclusively in the cytoplasm of all hepatocytes"}, {"measurement": "decrease of Foxa-2 activity", "setting": "[2]; 500 nM insulin", "result": 80, "unit": "%"}, {"measurement": "Foxa-2 activity, dose dependence", "setting": "[2]; insulin stimulation", "result": "dose-dependent decrease"}, {"measurement": "expression of Foxa-2", "setting": "Foxa-2 expression [3]", "result": "markedly increased"}]}]}
